Test results published in ChEMBL document CHEMBL3137667, “[Drug-induced liver injury; fourteenth updated edition of the bibliographic database of liver injuries and related drugs]” (Gastroenterol Clin Biol, 2004).

Tests used:
[1] = human, serum, 4383 h
[2] = Proposed mechanism(s) of liver damage. [column 'MEC' in source]; details: human
[3] = human, serum
[4] = human
[5] = human; remark: listed apart in the source
[6] = human, serum; remark: listed apart in the source
[7] = Times to onset, minimal and maximal, observed in the indexed observations. [column 'DELAI' in source]; details: human
[8] = Highest frequency of acute liver toxicity observed during clinical trials, expressed as a percentage. [column '% AIGUE' in source]; details: human
[9] = Highest frequency of moderate liver toxicity observed during clinical trials, expressed as a percentage. [column '% BIOL' in source]; details: human
[10] = human; remark: listed apart in the source
[11] = human; remark: listed apart in the source
[12] = human; remark: listed apart in the source
[13] = human; remark: listed apart in the source
[14] = human; remark: listed apart in the source
[15] = Presence of at least one case with successful reintroduction. [column 'REINT' in source]; details: human
[16] = human; remark: listed apart in the source
[17] = human; remark: listed apart in the source
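Wherever Hepatotoxicity (association with vascular disease) is given: count of indexed literature references reporting vascular liver injury in humans, e.g. peliosis hepatitis, hepatic veno-occlusive disease or Budd-Chiari syndrome.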
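Wherever Hepatotoxicity (benign tumour) is given: value is a count of indexed literature references citing a benign tumour confirmed by histopathology.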
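Wherever Hepatotoxicity (choleostasis) is given: human cholestatic liver injury, shown by histopathology or by peak ALT or AST elevation over alkaline phosphatase ratio below 2, value counts indexed literature reports.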
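Wherever Hepatotoxicity (chronic liver disease) is given: chronic liver injury confirmed by histopathology or persistently raised serum aminotransferase activity beyond 6 months, value given as the count of indexed literature references.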
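Wherever Hepatotoxicity (cirrhosis) is given: value is a count of indexed literature references reporting cirrhosis confirmed by histopathology.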
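Wherever Hepatotoxicity (cytolytic) is given: human cytolytic liver injury, shown by histopathology or by a ratio above 5 of peak ALT or AST elevation to alkaline phosphatase elevation, value counts indexed references.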
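Wherever Hepatotoxicity (granulomatous hepatitis) is given: value is a count of indexed literature references reporting granulomatous liver disease confirmed by histopathology.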
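Wherever Hepatotoxicity (malignant tumour) is given: malignant tumour confirmed by histopathology, value gives the count of indexed literature references reporting it.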
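Wherever Hepatotoxicity (severe hepatitis) is given: human clinical data: severe hepatitis, meaning potentially life-threatening liver failure or clinically observed cases, the value counts how many indexed literature references report it.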
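Wherever Hepatotoxicity (steatosis) is given: steatosis confirmed by histopathology, value is the count of indexed references.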

| Compound | Hepatotoxicity (chronic liver disease) [1] | Hepatotoxicity (mechanism) [2] | Hepatotoxicity (moderate) [3] | Hepatotoxicity (cytolytic) [4] | Hepatotoxicity (cirrhosis) [5] | Hepatotoxicity (acute) [6] | Hepatotoxicity (time to onset) [7] | Hepatotoxicity (acute) [8] [%] | Hepatotoxicity (moderate) [9] [%] | Hepatotoxicity (malignant tumour) [10] | Hepatotoxicity (granulomatous hepatitis) [11] | Hepatotoxicity (steatosis) [12] | Hepatotoxicity (benign tumour) [13] | Hepatotoxicity (severe hepatitis) [14] | Hepatotoxicity (successful reintroduction) [15] | Hepatotoxicity (association with vascular disease) [16] | Hepatotoxicity (choleostasis) [17] | other results |
| --- | --- | --- | --- | --- | --- | --- | --- | --- | --- | --- | --- | --- | --- | --- | --- | --- | --- | --- |
| INTERFERON GAMMA-1A | 0 | Dose-dependant | 50 | 2 | 0 | 3 | 6 days - 3 months | 0 | 65 | 0 | 0 | 0 | 0 | 1 | yes | 0 | 0 |  |
| CCN(CC)Cc1cc(Nc2ccnc3cc(Cl)ccc23)ccc1O.Cl | 0 |  | 2 |  | 1 | 18 | 1 week - 1 year |  |  | 0 |  | 0 | 0 |  | yes | 0 |  | Hepatotoxicity (mechanism) ([2]; Liver): Allergic, Dose-dependant, Reactive metabolite; Hepatotoxicity (cytolytic) ([4]; Liver): 11; Hepatotoxicity (acute) ([8]; Liver): 6.7%; Hepatotoxicity (moderate) ([9]; Liver): 0%; Hepatotoxicity (granulomatous hepatitis) ([11]; Liver): 0; Hepatotoxicity (severe hepatitis) ([14]; Liver): 8; Hepatotoxicity (choleostasis) ([17]; Liver): 4 |
| O=C(O)c1cccnc1Nc1cccc(C(F)(F)F)c1 [NIFLUMIC ACID] | 0 | Allergic | 0 | 4 | 0 | 4 | 3 days - 3.5 weeks | 0 | 0 | 0 | 0 | 0 | 0 | 2 | yes | 0 | 1 |  |
| NCC(=O)CCC(=O)O [AMINOLEVULINIC ACID] | 0 | Dose-dependant | 7 | 0 | 0 | 0 | 3 days | 0 | 66.7 | 0 | 0 | 0 | 0 | 0 | yes | 0 | 0 |  |
| CCc1nn(CCCN2CCN(c3cccc(Cl)c3)CC2)c(=O)n1CCOc1ccccc1 [NEFAZODONE] | 0 | Allergic | 4 | 14 | 0 | 16 | 1 week - 2 years | 0 | 0 | 0 | 0 | 0 | 0 | 11 | yes | 0 | 0 |  |
| Cc1onc(-c2ccccc2Cl)c1C(=O)N[C@@H]1C(=O)N2[C@@H]1SC(C)(C)[C@@H]2C(=O)O [CLOXACILLIN] | 0 | Allergic | 5 | 0 | 0 | 9 | 2 days - 1 month | 0 | 25 | 0 | 0 | 0 | 0 | 0 | yes | 0 | 8 |  |
| Nc1ccc(C(=O)O)c(O)c1 [AMINOSALICYLIC ACID] | 0 | Allergic | 6 | 11 | 0 | 17 | 2 weeks - 2 months | 6.4 | 35.3 | 0 | 0 | 0 | 0 | 6 | yes | 0 | 9 |  |
| Cc1ncc(CO)c(CO)c1O [PYRIDOXINE] | 0 |  | 2 |  | 0 | 1 | 2 months |  |  | 0 |  | 0 | 0 |  | yes | 0 |  | Hepatotoxicity (mechanism) ([2]; Liver): Dose-dependant; Hepatotoxicity (cytolytic) ([4]; Liver): 1; Hepatotoxicity (acute) ([8]; Liver): 0%; Hepatotoxicity (moderate) ([9]; Liver): 6%; Hepatotoxicity (granulomatous hepatitis) ([11]; Liver): 0; Hepatotoxicity (severe hepatitis) ([14]; Liver): 0; Hepatotoxicity (choleostasis) ([17]; Liver): 0 |
| NC(=O)c1cccnc1 [NIACINAMIDE] | 0 | Dose-dependant | 1 | 1 | 0 | 2 | < 2 months - 3 months | 0 | 6.3 | 0 | 0 | 0 | 0 | 0 | yes | 0 | 0 |  |
| Nc1nc(O)c2ncn(COC(CO)CO)c2n1 [GANCICLOVIR] | 0 | Dose-dependant | 9 | 1 | 0 | 1 | 1 week - 26 days | 0 | 55 | 0 | 0 | 0 | 0 | 0 | yes | 0 | 1 |  |
| COc1ccc2[nH]c([S+]([O-])Cc3ncc(C)c(OC)c3C)nc2c1 (stereo unspecified) [OMEPRAZOLE] | 0 | Dose-dependant | 24 | 8 | 0 | 10 | 2 days - 1 year | 3.1 | 47 | 0 | 0 | 0 | 0 | 1 | yes | 0 | 3 |  |
| CN1C[C@H](CC#N)C[C@@H]2c3cccc4[nH]c(Cl)c(c34)C[C@H]21 [LERGOTRILE] | 0 | Dose-dependant | 6 | 4 | 0 | 5 | 4 days - 5 months | 15.8 | 63.2 | 0 | 0 | 0 | 0 | 0 | yes | 0 | 0 |  |
| CCC1NC(=O)c2cc(S(N)(=O)=O)c(Cl)cc2N1 (stereo unspecified) [QUINETHAZONE] | 0 | Allergic | 0 | 0 | 0 | 1 | 2 months | 0 | 0 | 0 | 0 | 0 | 0 | 0 | yes | 0 | 1 |  |
